Regarding `CC(=O)Nc1nc(-c2ccco2)c(C(=O)c2ccccn2)s1`, the melting point fell in the range of 216 to 217 °C.

Compound `NC(=S)NN=C(CNC(=O)Cc1ccccc1)c1ccccc1` yielded a melting point of 170 to 172 °C.

For `Cc1ccc(S(=O)(=S)OCc2ccccc2)cc1` (configuration not stated), the melting point was 52 to 56.5 °C.

In turn, `CC[C@H](C)CCCCc1cnc(-c2ccc(OC(C)C)cc2)nc1` returned a melting point of 47.2 to 47.7 °C.

In turn, `Cc1cc(=O)n2ncn(N)c2n1` came in with a melting point of 202 to 204 °C.

In the case of `COc1cc2ncnc(N3CCN(C(=S)NCc4ccc(C(C)(C)C)cc4)CC3)c2cc1OC`, the melting point lay in the range of 104 to 105 °C.

`COc1ccc(C(=O)c2[nH]c(=S)[nH]c2C)cc1` had a melting point of 200 °C.

Consider `Cc1cc(Cn2c(=S)sc3ccccc32)cc(C)c1O`, for which the melting point lay in the range of 164 to 165 °C.

Consider `CC(C(=O)OCc1ccccc1)c1cccc(NC(=O)NCC(=O)N2[C@@H](c3ccccc3)CC[C@H]2C(=O)OC(C)(C)C)c1` (some centres not stated), for which the melting point was found to be 75 °C.

With `Cc1cc(C2=NOC(c3cc(Cl)cc(Cl)c3)(C(F)(F)F)C2)ccc1C(=O)NC1CON(C)C1=O` (configuration not stated), the melting point came to 87 °C.

`O=C1CCC(N2Cc3c(OCc4ccc(CN(CCC(F)(F)F)CCC(F)(F)F)cc4)cccc3C2=O)C(=O)N1` (configuration not stated) had a melting point of 107 to 109 °C.

On to `CCC(=O)N1CCC(NC(=O)Nc2ccc(C(=O)O)cc2)CC1`, for which the melting point is 201 to 204 °C.

In turn, `Cc1ccc(S(=O)(=O)N2CCSC2=C(c2cccc(C)c2C)C(N)c2cccc(C)c2)cc1` (configuration not stated) gave a melting point of 141 to 144 °C.

`Cc1cccc(C2CC(=O)c3ccccc3O2)c1` (configuration not stated): the melting point was in the range of 156 to 158 °C.

`O=C(Nc1ccccc1)Nc1ccc(Cl)cc1C(=O)c1ccccc1` registered a melting point of 145 to 147 °C.

For the compound `O=C(Nc1ccccc1S(=O)(=O)c1ccccc1)N[C@@H](Cc1ccc(Nc2nccc3cnccc23)cc1)C(=O)O`, the melting point came to 192 °C.

Take `Cc1cc(C)c(C2C(=O)N(N(C)C)C3(CCN(N(C)C)CC3)C2=O)c(C)c1` (configuration not stated): the melting point fell in the range of 80 to 85 °C.

As for `O=C(Nc1ccc(C(=O)N2Cc3cccn3Cc3ccccc32)cc1)c1ccc2[nH]ccc2c1`, the melting point was in the range of 130 to 170 °C.

On to `CCOC(=O)C1(C)Cc2cc(Cl)cc([N+](=O)[O-])c2O1` (configuration not stated), for which the melting point fell in the range of 69 to 72.5 °C.

`CN(C)c1cccc2c(S(=O)(=O)Nc3ccc4nonc4c3)cccc12` returned a melting point of 106 °C.

`CCN(CC)CCNC(=O)c1cc(Cl)c(N)cc1OCC(=O)c1cccs1` yielded a melting point of 135 to 139 °C.

For the compound `CCC(=O)Nc1ccc(C)c(O)c1C`, the melting point was 140 °C.

The compound `COc1ccc(C2(C#Cc3cccc([N+](=O)[O-])c3)CCCC(=O)C2)cc1OC1CCCC1` (configuration not stated) registered a melting point of 46 to 48 °C.

Take `O=C(NCCO)c1cccc(-c2cccc3nn(Cc4ccccc4)cc23)c1`: the melting point was in the range of 166 to 167 °C.

Compound `O=C(NCc1ccc(Cl)cc1)c1ccccc1S` yielded a melting point of 131 to 132 °C.

With `CCC(=O)c1cc(O)cc2cc(-c3ccc(O)cc3)oc12`, the melting point fell in the range of 257 to 260 °C.

Compound `CNC(=O)n1sc(OCc2ccc(Cl)cc2)nc1=O` displayed a melting point of 145 °C.

Take `C=CCON=C(C(=O)O)c1nc(NC=O)sc1Cl`: the melting point was 166 to 167 °C.

Take `CCOC(=O)Nc1c(-c2ccccc2)c2cc(Cl)ccc2n1C`: the melting point lay in the range of 123 to 124 °C.

As for `Cc1c(-c2cc(Nc3cc4n(n3)CCN(C)C4)c(=O)n(COP(=O)(OCCC#N)OCCC#N)n2)cccc1N1Cc2cc(C(C)(C)C)sc2C1=O`, the melting point is 208 to 210 °C.

Take `C=C(F)C(=O)Oc1c(Br)cc(C#N)cc1Br`: the melting point is 135 to 138 °C.

The compound `O=C1N=Nc2ccccc21` showed a melting point of 232 to 233 °C.

Take `CN(C)CCOc1ccc(O)c(C=NCCN=Cc2cc(OCCN(C)C)ccc2O)c1`: the melting point was 84 to 86 °C.

In turn, `COc1ccc(Cc2nc3c(cnn3C(CCCc3ccccc3)C(C)=O)c(=O)[nH]2)cc1` (configuration not stated) registered a melting point of 129 °C.

For the compound `CSc1nc(-c2ccccn2)n(-c2ccc(C)c(C)c2)c(=O)c1C#N`, the melting point was in the range of 218 to 223 °C.

As to `CN(C)Cc1cc(C(=O)C2CCCCC2)cc(C(C)(C)C)c1O`, the melting point lay in the range of 149 to 150 °C.

`Clc1cccc(Nc2n[nH]c3ncnc(NCc4ccccc4)c23)c1`: the melting point lay in the range of 216 to 218 °C.

As to `CCNc1ccc(NC(C)=O)c(C)c1`, the melting point was in the range of 102 to 103 °C.

Regarding `CS(=O)(=O)N1C[C@H](S)C[C@H]1COc1ccccc1`, the melting point is 78 to 79 °C.

Consider `CCCn1nc2c(N)nc3ccccc3c2c1NCc1ccccc1`, for which the melting point lay within 160 to 161 °C.

For the compound `COc1cc(-c2ccc(NCc3ccccc3)nn2)ccc1OC(F)F`, the melting point turned out to be 136 °C.

As for `Cc1ccc(S(=O)(=O)OCCCCCCCn2c3c(c4ccccc4c2=O)C(=O)c2ccccc2-3)cc1`, the melting point is 123 to 126 °C.

`Cc1noc(-c2ccc(=O)n3c2-c2sc(-c4ccccc4)cc2SCC3)n1` showed a melting point of 183 to 185 °C.

`CC(C)(C)c1cc(C(=O)c2cc[nH]n2)cc(C(C)(C)C)c1O`: the melting point lay within 216 to 219 °C.

With `Cc1cc(Cl)ccc1OCc1nn(C)c(=O)o1`, the melting point was 108 to 110 °C.

`CN1C(=O)c2cccc3c(S(C)(=O)=O)ccc1c23` gave a melting point of 216 to 218 °C.

`Nc1c(NC=O)c(=O)[nH]c(=O)n1Cc1ccc(Cl)cc1`: the melting point is 274 to 278 °C.

As for `CC(C)(C)CC(NC(=O)c1ccc(Br)cc1)NC(=NS(=O)(=O)C(F)(F)F)Nc1cccnc1` (configuration not stated), the melting point was in the range of 185 to 186 °C.

As to `CC(=O)OC1CSC(Oc2cccc(-c3cccnc3Cl)c2)C(OC(C)=O)C1OC(C)=O` (configuration not stated), the melting point lay within 146 to 147 °C.

The compound `Cc1cc(C(=O)c2[nH]c(=O)[nH]c(=O)c2C(C)C)cc([N+](=O)[O-])c1` displayed a melting point of 124 to 125 °C.

With `Cc1cc(-n2ccnc2)c2cccc(OCc3c(Cl)ccc(S(=O)(=O)N4CCC[C@H]4C(=O)NCC4CCN(CCO)CC4)c3Cl)c2n1`, the melting point was found to be 160 °C.

In turn, `Cc1ccc(NC(=O)c2ccc(CN3CCCCC3)c(C(F)(F)F)c2)cc1-c1ccc2cnncc2c1` returned a melting point of 175 to 177 °C.

In turn, `CSc1cc2c(cc1C(F)(F)F)N(C(=O)Nc1cccc(C(=O)NCCN(C)C)c1)CC2` showed a melting point of 91 to 93 °C.

`COc1cc(Oc2ccc(S(C)(=O)=O)nc2)cc2cc(C3=NCC(CC(=O)N4CCOCC4)S3)[nH]c12` (configuration not stated) showed a melting point of 148 to 149 °C.

Compound `CC(C)C1Sc2c(Cl)cccc2NC1=O` (configuration not stated) had a melting point of 158 to 159 °C.

In turn, `C=C(CC(=O)Nc1cc(Cl)cc(Cl)c1)C(=O)O` showed a melting point of 185 °C.

In the case of `Cc1cc(C)cc(-c2[nH]c3ccc(-c4nccs4)cc3c2CCN)c1`, the melting point lay in the range of 98.5 to 100 °C.

On to `CNC(=O)CS(=O)(=O)c1ccccc1`, for which the melting point is 106 to 109 °C.

Take `COCCCn1c(C=O)c(Br)c2c3c(c(-c4ccccc4Cl)cc21)C(=O)NC3=O`: the melting point was 206 to 207 °C.

`CC(C)(C)OC(=O)NC1COCCCC=CC2CC2(C(=O)NS(=O)(=O)C2CC2)NC(=O)C2CC(OC(=O)N3CCc4ccccc43)CN2C1=O` (configuration not stated): the melting point fell in the range of 128 to 130 °C.

The compound `O=C(Nc1ccnnc1)Nc1cc(F)cc(F)c1` had a melting point of 272 to 273 °C.

On to `Cc1nc(-c2ccc(C(F)(F)F)cc2)oc1COc1ccc(OCC(=O)O)cc1`, for which the melting point lay in the range of 136 to 138 °C.

The values are drawn from a melting point compilation (Tetko et al.; mined from patent text by program, amines drawn as free bases though some values may be those of a salt).
